Data reported in patent publication EP0236913A2, “Aryl-azolylmethyl-benzocyclo-alkene derivatives, process for their preparation and their use” (HOECHST AKTIENGESELLSCHAFT, priority 1986, dated 1987).
Converted amounts (≈) assume the structure as drawn.

Assays:
[1] = system: Weizenmehltau (Erysiphe graminis); experiment: wheat powdery mildew, curative spray test on wheat plants (Versuch I); format: in vivo; settings: untreated infected control = 100 %
Description: Weizenpflanzen werden im 3-Blattstadium mit Konidien des Weizenmehltaus (Erysiphe graminis) stark inokuliert und in einem Gewächshaus bei 20°C und einer relativen Luftfeuchte von 90 - 95% aufgestellt. 3 Tage nach Inokulation werden die Pflanzen mit den in Tabelle 6 aufgeführten Verbindungen in den angegebenen Wirkstoffkonzentrationen gleichmäßig benetzt. Nach einer Inkubationszeit von 10 Tagen werden die Pflanzen auf den Befall mit Weizenmehltau untersucht. Der Befallsgrad wird ausgedrückt in % befallener Blattfläche, bezogen auf unbehandelte, infizierte Kontrollpflanzen (= 100% Befall). Das Ergebnis ist in der Tabelle 6 zusammengefaßt.

[2] = system: Candida albicans (200/175); experiment: in vitro antimycotic serial dilution test (microtitration technique); format: cell-based; settings: read-out: Minimale Hemmkonzentration
[3] = system: Trichophyton mentagrophytes; experiment: local in vivo efficacy in experimentally infected guinea pigs, dermal treatment; design: species or system Meerschweinchen (Stamm Pirbright white); settings: Dermal 5 x 0.1 %; for Mykosen (Durchmesser in mm) Präparat + Vehikel x2: from day 3 after infection, mean, n = 6 measurements; for Mykosen Differenz (%): difference relative to Clotrimazol = 100; for Mykosen (Durchmesser in mm) Differenz x1 - x2: vehicle control side minus treated side
Source text: Als Beispiel für die hohe lokale in vivo Wirksamkeit der erfindungsgemäßen Verbindungen werden Behandlungsergebnisse an experimentell mit Trichophyton mentagrophytes infizierten Labortieren angeführt.
Zur Feststellung der lokalen Wirksamkeit wurden jeweils zwei 450-500 g schwere Meerschweinchen (Stamm Pirbright white) mit 1,5 x 10^4 Konidien/Tier in die Epidermis, verteilt auf 6 Infektionspunkte, infiziert.
Die Behandlung der Tiere erfolgte dermal ab dem 3. Tag nach der Infektion an 5 aufeinanderfolgenden Tagen durch Aufbringen einer 0,1 %igen Präparatlösung auf 3 Infektionsstellen einer Rückenseite. Die andere Rückenseite wurde mit Vehikel ohne Präparat auf gleiche Weise behandelt.
Neben den mit den erfindungsgemäßen Substanzen behandelten Tieren wurden zwei Tiere mit der Referenzsubstanz Clotrimazol behandelt, zwei Tiere blieben nach der Infektion unbehandelt.

[4] = system: Aspergillus niger (500/284); experiment: in vitro antimycotic serial dilution test (microtitration technique); format: cell-based; settings: read-out: Minimale Hemmkonzentration
Source text: (§1) Die in vitro-Prüfungen auf antimykotische Wirkung wurden im Reihenverdünnungstest an Hauptpilzen (Trichophyton mentagrophytes, Trichophyton rubrum, Microsporum canis), Hefepilzen (Candida Albicans) und Schimmelpilzen (Aspergillus niger) durchgeführt (Material und Methodik: Mikrotitrationstechnik veröffentlicht in Mykosen 27,14 (1984). Wie aus Tabelle 4 ersichtlich, zeigen bei diesen in vitro-Prüfungen die erfindungsgemäßen Verbindungen gute antimykotische Eigenschaften,die denjenigen der Referenzsubstand Clotrimazol überlegen sind.

[5] = system: Trichophyton mentagrophytes (100/25); experiment: as above; format: cell-based; settings: read-out: Minimale Hemmkonzentration
Source text: as §1

[6] = system: Microsporum canis (150/120); experiment: as above; format: cell-based; settings: read-out: Minimale Hemmkonzentration
Source text: as §1

[7] = system: Trichophyton rubrum (101/58); experiment: as above; format: cell-based; settings: read-out: Minimale Hemmkonzentration
Source text: as §1

[8] = system: Elektroschock-induzierte Krämpfe; experiment: antagonism of electroshock-induced convulsions (ECS); format: in vivo, Maus; settings: mouse; corneal electroshock 1 h after oral test substance; tonic extensor convulsions; read-out: ED50 (mg/kg p.o.) ECS
Description: Antagonismus gegen Elektroschock-induzierte Krämpfe (Maus) (ECS)
(§2) Methode: • Gruppen von 6 männlichen Mäusen (Stamm: NMRI, SPF-71, KF) im Gewicht von 18-22 g werden in diesem Versuch verwendet. Die zu prüfenden Substanzen werden in einer 1 %igen Aufschwemmung von Tylose (Methyl-hydroxy-ethyl-cellulose) in Wasser suspendiert und per Schlundsonde in einem Volumen von 10 ml/kg Körpergewicht oral verabreicht. Die Kontrollgruppe erhält ein entsprechendes Volumen Tylosesuspension ohne Prüfsubstanz.
Eine Stunde nach Prüfsubstanzgabe wird den.Tieren über Cornea-Elektroden ein Elektroschock verabreicht (Stromstärke 12-22 mA, Dauer 0.2 sec. 50 Hz), nachdem vorher an einer zweiten Kontrollgruppe die Stromstärke ermittelt worden war, die bei 100 % der Tiere einen tonischen Extensorkrampf der hinteren Extremitäten hervorruft.
Die Anzahl der durch die Prüfsubstanz vor einem Extensorkrampf geschützten Tiere dient als Maß der antikonvulsiven Wirkung in diesem Test.
Bei vorhandener Schutzwirkung der Prüfsubstanz wird eine mittlere effektive Dosis (ED-50) grafisch (Litchfield and Wilcoxon) oder rechnerisch (Probitanalyse) ermittelt.
Literatur: E.A. SWINYARD, In: Experimental Models of Epilepsy, Raven Press, New York, 1972, p. 433-458.

[9] = acute oral toxicity (LD-50); settings: in vivo, per os
[10] = system: Pentetrazol-induzierte Krämpfe; experiment: antagonism of pentetrazol-induced convulsions (PTZ); format: in vivo, Maus; settings: mouse; pentetrazol 125 mg/kg s.c. 1 h after oral test substance; tonic extensor convulsions; read-out: ED50 (mg/kg p.o.) Ptz
Description: Antagonismus gegen Pentetrazol-induzierte Krämpfe (Maus) (PTZ)
as §2, with “10” for “6”
Pentetrazol (Cardiazol (R)) wird in wäßriger Lösung in einer Dosis von 125 mg/kg Körpergewicht 1 Stunde nach Verabreichung der Prüfsubstanzen subcutan injiziert. Diese Dosis erzeugt bei 90-100 % der Kontrolltiere innerhalb der Beobachtungszeit von 60 Minuten nach der Injektion tonische Extensorkrämpfe der hinteren Extremitäten. Als Schutzwirkung der Prüfsubstanz wird gewertet, wenn die Anzahl der krampfenden Tiere gegenüber der Kontrollgruppe vermindert ist.
Bei vorhandener Schutzwirkung der Prüfsubstanz wird eine mittlere effektive Dosis (ED-50) grafisch (Litchfield and Wilcoxon) oder rechnerisch(Probitanalyse) ermittelt.
Literatur: E.A. SWINYARD, J.Pharmacol.Exp. Ther. 106, (1952), 319-330

[11] = system: Pseudo-cercosporella herpotrichoides; experiment: agar plate test with Pseudocercosporella cultures (Versuch V); format: cell-based; settings: 144 h, 6 days after inoculation, read-out: Wirkungsgrad gegenüber Pseudo-cercosporella herpotrichoides in %; for inhibition of growth at 125 µg/mL: 125 ppm Wirkstoff in Biomalzagar; for inhibition of growth at 250 µg/mL: 250 ppm Wirkstoff in Biomalzagar; for inhibition of growth at 500 µg/mL: 500 ppm Wirkstoff in Biomalzagar
Description: Biomalzagar wurde mit den beanspruchten Verbindungen in den in Tabelle 10 angegebenen Konzentrationen versetzt. Nach dem Erstarren des Agars erfolgte die Beimpfung mit Pseudocercosporella-Kulturen. Jeweils 20 µl einer Sporensuspension wurden auf das Zentrum der Agarplatte aufgebracht. Die Versuche wurden 6 Tage nach Beimpfung ausgewertet. Der Wirkungsgrad der Wirkstoffe wird ausgedrückt in % im Vergleich zur Kontrolle (Agarmedium ohne Wirkstoff).

[12] = 60 mg Wirkstoff/Liter Spritzbrühe
[13] = 125 mg Wirkstoff/Liter Spritzbrühe
[14] = 250 mg Wirkstoff/Liter Spritzbrühe
[15] = 500 mg Wirkstoff/Liter Spritzbrühe

| MIC [2] | MIC [4] | MIC [5] | MIC [6] | MIC [7] | SMILES | mit Weizenmehltau befallene Blattfläche in % [1, 12] | mit Weizenmehltau befallene Blattfläche in % [1, 13] | mit Weizenmehltau befallene Blattfläche in % [1, 14] | mit Weizenmehltau befallene Blattfläche in % [1, 15] | Mykosen (Durchmesser in mm) Präparat + Vehikel x2 [3] | Mykosen Differenz (%) [3] | Mykosen (Durchmesser in mm) Differenz x1 - x2 [3] | ED50 [8] | LD50 [9] | ED50 [10] | inhibition of growth at 125 µg/mL [11] | inhibition of growth at 250 µg/mL [11] | inhibition of growth at 500 µg/mL [11] |
| --- | --- | --- | --- | --- | --- | --- | --- | --- | --- | --- | --- | --- | --- | --- | --- | --- | --- | --- |
|  |  |  |  |  | CC1(C)CC(O)(Cn2ccnc2)c2ccccc21 (centres unmarked) [Beispiel 36, 1-(1H-Imidazol-1-ylmethyl)-3,3-dimethyl-indan-1-ol] | 0-3% | 0-3% | 0% | 0% |  |  |  |  |  |  |  |  |  |
|  |  |  |  |  | OC1(Cn2ccnc2)CCc2ccccc21 (centres unmarked) [Verbindung 1 (Tab. 3), 1-Hydroxy-1-(1H-imidazol-1-ylmethyl)-indan] |  |  |  |  |  |  |  | 18.2 mg/kg | 300 mg/kg | 70 mg/kg |  |  |  |
|  |  |  |  |  | OC1(Cn2ccnc2)CCc2cc(Oc3ccccc3)ccc21 (centres unmarked) [Verbindung 11 (Tab. 3)] |  |  |  |  |  |  |  |  |  | 9.3 mg/kg | 100% | 100% | 100% |
|  |  |  |  |  | c1ccc(-c2ccc(C3(Cn4ccnc4)CCc4ccccc43)cc2)cc1 (centres unmarked) [Verbindung 13 (Tab. 1)] |  |  |  |  |  |  |  | 17.3 mg/kg | > 300 mg/kg | 16 mg/kg | 100% | 100% | 100% |
| 1.95 µg/mL (≈ 6.04 µM) | 0.97 µg/mL (≈ 3 µM) | 0.97 µg/mL (≈ 3 µM) | 0.97 µg/mL (≈ 3 µM) | 0.97 µg/mL (≈ 3 µM) | Clc1ccc(C2(Cn3ccnc3)CCCc3ccccc32)cc1 (centres unmarked) [Verbindung 20 (Tab. 1)] | 3% | 0-3% | 0% | 0% | 4.3 mm | (138.5) % | 9.7 mm |  |  |  |  |  |  |
|  |  |  |  |  | Fc1ccc(C2(Cn3ccnc3)CCCc3ccccc32)c(F)c1 (centres unmarked) [Verbindung 32 (Tab. 1)] |  |  |  |  |  |  |  | 60 mg/kg |  | 17.2 mg/kg | 100% | 100% | 100% |
|  |  |  |  |  | Fc1cc(Cl)ccc1C1(Cn2ccnc2)CCCc2ccccc21 (centres unmarked) [Verbindung 33 (Tab. 1)] |  |  |  |  |  |  |  | 24.6 mg/kg |  | 55 mg/kg | 100% | 100% | 100% |
|  |  |  |  |  | Cc1ccc(C2(Cn3ccnc3)CCc3ccccc32)cc1C (centres unmarked) [Verbindung 53 (Tab. 1)] |  |  |  |  |  |  |  | 35.1 mg/kg | > 300 mg/kg | 30 mg/kg | 100% | 100% | 100% |
| 0.48 µg/mL (≈ 1.32 µM) | 1.95 µg/mL (≈ 5.35 µM) | 0.24 µg/mL (≈ 0.658 µM) | 0.007 µg/mL (≈ 0.0192 µM) | 0.06 µg/mL (≈ 0.165 µM) | c1ccc(-c2ccc(C3(Cn4ccnc4)CCCc4ccccc43)cc2)cc1 (centres unmarked) [Verbindung 60 (Tab. 1)] |  |  |  |  | 4.5 mm | (157.1) % | 11 mm |  |  |  | 100% | 100% | 100% |
| 1.95 µg/mL (≈ 5.32 µM) | 1.95 µg/mL (≈ 5.32 µM) | 0.97 µg/mL (≈ 2.65 µM) | 0.06 µg/mL (≈ 0.164 µM) | 0.97 µg/mL (≈ 2.65 µM) | c1ccc(Oc2ccc(C3(Cn4ccnc4)CCc4ccccc43)cc2)cc1 (centres unmarked) [Verbindung 67 (Tab. 1)] |  |  |  |  | 3.2 mm | (107.1) % | 7.5 mm |  |  |  |  |  |  |
| 0.97 µg/mL (≈ 2.55 µM) | 0.97 µg/mL (≈ 2.55 µM) | 0.48 µg/mL (≈ 1.26 µM) | 0.06 µg/mL (≈ 0.158 µM) | 0.12 µg/mL (≈ 0.315 µM) | c1ccc(Oc2ccc(C3(Cn4ccnc4)CCCc4ccccc43)cc2)cc1 (centres unmarked) [Verbindung 70 (Tab. 1)] |  |  |  |  | 3 mm | (182.8) % | 12.8 mm |  |  |  |  |  |  |

| SMILES | MIC [2] | MIC [4] | MIC [5] | MIC [6] | MIC [7] | mit Weizenmehltau befallene Blattfläche in % [1, 12] | mit Weizenmehltau befallene Blattfläche in % [1, 13] | mit Weizenmehltau befallene Blattfläche in % [1, 14] | mit Weizenmehltau befallene Blattfläche in % [1, 15] | Mykosen (Durchmesser in mm) Präparat + Vehikel x2 [3] | Mykosen Differenz (%) [3] | Mykosen (Durchmesser in mm) Differenz x1 - x2 [3] | ED50 [8] | LD50 [9] | ED50 [10] | inhibition of growth at 125 µg/mL [11] | inhibition of growth at 250 µg/mL [11] | inhibition of growth at 500 µg/mL [11] |
| --- | --- | --- | --- | --- | --- | --- | --- | --- | --- | --- | --- | --- | --- | --- | --- | --- | --- | --- |
| Clc1ccccc1C(c1ccccc1)(c1ccccc1)n1ccnc1 [Clotrimazol, reference compound] | 3.9 µg/mL (≈ 11.3 µM) | 1.95 µg/mL (≈ 5.65 µM) | 0.97 µg/mL (≈ 2.81 µM) | 0.97 µg/mL (≈ 2.81 µM) | 0.97 µg/mL (≈ 2.81 µM) |  |  |  |  | 7.6 mm | (100) % | 7 mm |  |  |  |  |  |  |
